Assay results from patent publication US20260297094A1, “Tetracyclic Compounds as SMARCA2 and/or SMARCA4 Degraders” (Aurigene Oncology Limited, priority 2023, published 2026).
pEC50: −log10 of the molar value. Structures can show the parent of a compound that is named as a salt.

Tests used:
Format in all cases: cell-based
[1] = system: MV-4-11 cells; assay: Anti proliferative activity in MV-4-11 cells by Cell Titer Glo (Promega) assay; conditions: Homo sapiens, MV4-11, 72 h, 3 days, CellTiter-Glo
Method: Example-P2: Determination of Anti Proliferative Activity of Compounds in Cell Lines MV-4-11 by Cell Titer Glo® (Promega) Assay
MV-4-11 (CRL-9591™) cells were seeded in 96 well plate flat black clear bottom plates (Corning, Cat. No 3904) using complete DMEM Medium. Next day, selected compounds of the present invention were added to cells from 10 mM stocks made in DMSO (Sigma Cat no. D2650). Each concentration of compound was tested in triplicate with DMSO concentration at a final percentage not exceeding 0.3 in the cells. After the incubation of MV-4-11 cells with compound for 3 days; assay was terminated using 100 μl of CellTiter Glo® reagent (Promega, Cat. no G7572). CellTiter-Glo® Luminescent reagent determines the number of viable cells based on quantitation of ATP present which is an indicator of cell number and metabolic activity. Luminescence readings were taken in Victor-5 instrument. Percent inhibition of proliferation was calculated using formula, % inhibition=100−(luminescence value of test/luminescence value of DMSO control)*100. DMSO control (0%)=Cells in complete media with DMSO; blank=Media alone containing DMSO. EC50 was calculated using graph pad prism software.

[2] = biological target: T1, SMARCA4 (Homo sapiens, UniProt P51532); assay: SMARCA4 degradation in MV-4-11 cells by Western blot; conditions: MV4-11, at 100 nM, 16 hours, vs DMSO, read-out: Percent degradation SMARCA4
T1 construct: endogenous in cells; host or cells: MV-4-11 (CRL-9591)
T1 sequence (P51532 whole entry): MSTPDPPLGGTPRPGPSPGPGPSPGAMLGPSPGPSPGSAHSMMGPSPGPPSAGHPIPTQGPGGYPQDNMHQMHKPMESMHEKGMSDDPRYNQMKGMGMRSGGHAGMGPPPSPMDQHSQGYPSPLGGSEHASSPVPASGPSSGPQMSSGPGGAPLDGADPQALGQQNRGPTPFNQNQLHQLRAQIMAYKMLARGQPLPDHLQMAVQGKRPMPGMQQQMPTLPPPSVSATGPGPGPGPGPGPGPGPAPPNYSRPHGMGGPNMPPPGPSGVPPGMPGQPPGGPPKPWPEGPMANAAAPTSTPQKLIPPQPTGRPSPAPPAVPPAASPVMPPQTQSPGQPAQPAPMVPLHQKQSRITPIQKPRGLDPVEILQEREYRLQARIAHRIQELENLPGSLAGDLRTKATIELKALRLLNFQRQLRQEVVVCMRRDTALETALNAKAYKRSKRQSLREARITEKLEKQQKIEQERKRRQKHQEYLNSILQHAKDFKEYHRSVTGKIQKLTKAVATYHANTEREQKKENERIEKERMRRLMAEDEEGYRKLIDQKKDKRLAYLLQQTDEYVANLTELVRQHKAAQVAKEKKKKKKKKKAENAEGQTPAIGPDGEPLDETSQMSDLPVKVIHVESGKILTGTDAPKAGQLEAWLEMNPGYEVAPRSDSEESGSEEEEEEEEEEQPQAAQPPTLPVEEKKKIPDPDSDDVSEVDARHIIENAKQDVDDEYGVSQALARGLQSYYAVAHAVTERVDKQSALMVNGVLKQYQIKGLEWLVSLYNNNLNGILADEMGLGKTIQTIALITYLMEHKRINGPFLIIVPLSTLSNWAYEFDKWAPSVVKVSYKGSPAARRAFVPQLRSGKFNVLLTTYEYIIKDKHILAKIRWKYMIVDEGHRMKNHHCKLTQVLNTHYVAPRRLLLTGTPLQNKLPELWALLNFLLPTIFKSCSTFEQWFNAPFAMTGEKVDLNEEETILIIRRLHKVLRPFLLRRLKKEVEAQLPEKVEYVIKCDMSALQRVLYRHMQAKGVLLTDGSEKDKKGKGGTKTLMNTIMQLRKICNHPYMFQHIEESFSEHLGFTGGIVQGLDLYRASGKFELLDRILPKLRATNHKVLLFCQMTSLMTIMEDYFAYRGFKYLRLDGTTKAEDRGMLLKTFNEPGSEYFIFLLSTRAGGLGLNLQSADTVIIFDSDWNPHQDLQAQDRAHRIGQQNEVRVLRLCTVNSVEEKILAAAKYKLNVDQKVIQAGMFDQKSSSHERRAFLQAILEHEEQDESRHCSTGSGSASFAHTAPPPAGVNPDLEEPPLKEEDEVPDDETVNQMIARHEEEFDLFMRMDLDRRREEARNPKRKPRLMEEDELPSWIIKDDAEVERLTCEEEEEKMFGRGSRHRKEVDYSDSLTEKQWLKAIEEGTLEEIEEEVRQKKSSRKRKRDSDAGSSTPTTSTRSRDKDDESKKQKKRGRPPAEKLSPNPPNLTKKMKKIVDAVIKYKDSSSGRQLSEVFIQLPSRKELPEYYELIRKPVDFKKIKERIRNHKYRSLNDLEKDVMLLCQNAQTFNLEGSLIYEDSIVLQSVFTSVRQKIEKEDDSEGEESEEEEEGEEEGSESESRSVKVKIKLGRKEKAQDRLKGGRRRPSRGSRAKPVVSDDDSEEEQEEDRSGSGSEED
Method: (§1) Example-P3: Determination of SMARCA2 and SMARCA4 Degradation in MV-4-11 Cells by Western Blot
(§2) MV-4-11 (CRL-9591™) cells were plated in 6 well plates using complete Iscove's Modified Dulbecco's Medium. On the third day, compounds of present invention were added to cells from 10 mM stocks made in DMSO (Sigma Cat no. D2650). Each concentration of compound was tested with DMSO not exceeding final percentage of 0.1 in the cells. Cells were incubated with the compound for 16 hours followed by harvesting with 1×RIPA lysis buffer (Thermo Fischer, catalogue number #89900) containing protease inhibitor cocktail (Sigma catalogue number #P-8340). Equal amount of protein was loaded on SDS PAGE gel for electrophoresis. Western blot was carried out for detection of either SMARCA2 (Cell signalling technologies, catalogue number #11966) or SMARCA4 antibody (Cell signalling technologies, catalogue number #52251). Beta-Tubulin antibody (Cell signalling technologies, catalogue number #86298) was used as loading control. Percentage of SMARCA2 or SMARCA4 degradation was calculated using formula % Degradation=100−(normalized band intensity in treated sample/normalized band intensity in DMSO sample)*100. Here, “ND” refers to Not determined.

[3] = system: SK-MEL-5 cells; assay: Anti proliferative activity in SK-MEL-5 cells by Cell Titer Glo (Promega) assay; conditions: Homo sapiens, retreatment on Day 4, terminated on day 8, CellTiter-Glo
Method: Example-P1: Determination of Anti Proliferative Activity of Compounds in Cell Lines SK-MEL-5 by Cell Titer Glo® (Promega) Assay
Cells were seeded into 96-well plates and the plate was incubated in 37 degrees incubator overnight. The next day, compounds were diluted 3-fold to cover 9-point concentration range in DMSO. Intermediate plate dilution was prepared in media followed with compound treatment in cells. Retreatment of cells with compound dilutions was performed on Day 4 and assay was terminated on day 8 for SK-MEL-5 cells using CellTiter-Glo and the plate was kept on orbital shaker for 20 minutes at RT. Assay was terminated on day 6 for RERF-LC-A1 without a compound retreatment. Luminescence signal was recorded on VICTOR^3 instrument. Percent inhibition of proliferation was calculated at each concentration and plotted against the compound concentration. EC50 value was calculated using GraphPad® software.

[4] = biological target: T2, SMARCA2 (Homo sapiens, UniProt P51531); assay: SMARCA2 degradation in MV-4-11 cells by Western blot; conditions: MV4-11, 16 h, at 100 nM, vs DMSO, read-out: Percent degradation SMARCA2
T2 construct: endogenous in cells; host or cells: MV-4-11 (CRL-9591)
T2 sequence (P51531 whole entry): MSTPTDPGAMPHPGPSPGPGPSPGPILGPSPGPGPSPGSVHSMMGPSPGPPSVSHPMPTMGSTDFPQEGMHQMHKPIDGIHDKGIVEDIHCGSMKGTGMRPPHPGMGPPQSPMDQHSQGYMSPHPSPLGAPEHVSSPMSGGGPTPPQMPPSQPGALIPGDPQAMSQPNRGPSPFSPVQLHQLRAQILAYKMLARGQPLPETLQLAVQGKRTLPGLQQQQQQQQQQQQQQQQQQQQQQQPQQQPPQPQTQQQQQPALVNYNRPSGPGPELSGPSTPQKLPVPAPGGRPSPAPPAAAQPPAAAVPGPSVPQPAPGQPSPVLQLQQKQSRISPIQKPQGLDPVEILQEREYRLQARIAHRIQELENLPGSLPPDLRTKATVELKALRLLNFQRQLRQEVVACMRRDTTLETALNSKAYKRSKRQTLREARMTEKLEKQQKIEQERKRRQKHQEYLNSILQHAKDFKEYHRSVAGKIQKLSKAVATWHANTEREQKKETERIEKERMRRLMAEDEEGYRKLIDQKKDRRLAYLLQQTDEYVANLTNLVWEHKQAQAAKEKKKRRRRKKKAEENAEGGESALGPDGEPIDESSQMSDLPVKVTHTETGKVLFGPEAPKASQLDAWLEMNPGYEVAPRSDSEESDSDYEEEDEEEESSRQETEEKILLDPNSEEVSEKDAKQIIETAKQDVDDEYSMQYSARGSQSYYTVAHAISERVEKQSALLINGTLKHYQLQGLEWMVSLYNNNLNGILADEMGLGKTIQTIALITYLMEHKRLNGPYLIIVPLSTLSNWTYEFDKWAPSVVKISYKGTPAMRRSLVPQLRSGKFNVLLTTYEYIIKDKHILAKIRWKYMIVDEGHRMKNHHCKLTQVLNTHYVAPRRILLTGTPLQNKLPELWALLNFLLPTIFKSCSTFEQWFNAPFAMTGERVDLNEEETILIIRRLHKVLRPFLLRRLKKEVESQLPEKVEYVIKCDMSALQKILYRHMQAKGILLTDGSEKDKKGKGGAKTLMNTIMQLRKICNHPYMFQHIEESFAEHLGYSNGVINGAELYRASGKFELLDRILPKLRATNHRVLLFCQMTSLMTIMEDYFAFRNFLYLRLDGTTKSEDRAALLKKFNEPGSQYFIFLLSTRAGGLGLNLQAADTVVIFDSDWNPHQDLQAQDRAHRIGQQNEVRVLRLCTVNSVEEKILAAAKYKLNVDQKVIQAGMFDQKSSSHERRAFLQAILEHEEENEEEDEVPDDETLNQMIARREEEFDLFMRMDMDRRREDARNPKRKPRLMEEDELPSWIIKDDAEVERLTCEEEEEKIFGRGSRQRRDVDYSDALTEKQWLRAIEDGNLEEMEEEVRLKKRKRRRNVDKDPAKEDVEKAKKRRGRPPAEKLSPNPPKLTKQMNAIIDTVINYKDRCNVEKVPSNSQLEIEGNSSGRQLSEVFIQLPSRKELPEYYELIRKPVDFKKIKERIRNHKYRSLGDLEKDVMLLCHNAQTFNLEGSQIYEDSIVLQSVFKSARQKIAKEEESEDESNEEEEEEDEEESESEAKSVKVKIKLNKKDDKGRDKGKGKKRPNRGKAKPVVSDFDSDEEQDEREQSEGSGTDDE
Method: as §1, §2

SMILES	pEC50 [1]	inhibition at 0.1 µM [2] [%]	pEC50 [3]	inhibition at 0.1 µM [4] [%]
Cn1c2cc(N3CCC(N4CCC(c5ccc6c(c5)CN(C5CCC(=O)NC5=O)C6=O)CC4)CC3)ccc2n2c3cccc(Br)c3c(=O)nc12 (stereo not drawn) [Compound 14, 3-(5-(1′-(4-bromo-7-methyl-5-oxo-5,7-dihydrobenzo[4,5]imidazo[1,2-a]quinazolin-9-yl)-[1,4′-bipiperidin]-4-yl)-1-oxoisoindolin-2-yl)piperidine-2,6-dione]	> 8.00	94	> 8.00	100
Cn1c2cc(N3CCC(N4CCC(c5ccc6c(c5)CN(C5CCC(=O)NC5=O)C6=O)CC4)CC3)ccc2n2c3cccc(N)c3c(=O)nc12 (stereo not drawn) [Compound 15, 3-(5-(1′-(4-amino-7-methyl-5-oxo-5,7-dihydrobenzo[4,5]imidazo[1,2-a]quinazolin-9-yl)-[1,4′-bipiperidin]-4-yl)-1-oxoisoindolin-2-yl)piperidine-2,6-dione-HCl salt]	> 8.00	95	> 8.00	96
Cn1c2cc(N3CCC(N4CCC(c5ccc(NC6CCC(=O)NC6=O)cc5F)CC4)CC3)ccc2n2c3cccc(Br)c3c(=O)nc12 (stereo not drawn) [Compound 16, 3-((4-(1′-(4-bromo-7-methyl-5-oxo-5,7-dihydrobenzo[4,5]imidazo[1,2-a]quinazolin-9-yl)-[1,4′-bipiperidin]-4-yl)-3-fluorophenyl)amino)piperidine-2,6-dione]	> 8.00	100	> 8.00	99
Cn1c2cc(N3CCC(N4CCC(c5ccc(C6CCC(=O)NC6=O)cc5)CC4)CC3)ccc2n2c3cccc(Br)c3c(=O)nc12 (stereo not drawn) [Compound 17, 3-(4-(1′-(4-bromo-7-methyl-5-oxo-5,7-dihydrobenzo[4,5]imidazo[1,2-a]quinazolin-9-yl)-[1,4′-bipiperidin]-4-yl)phenyl)piperidine-2,6-dione]	> 8.00	24	> 8.00	68
Cn1c2cc(N3CCC(N4CCC(c5ccc(C6CCC(=O)NC6=O)cc5)CC4)CC3)ccc2n2c3cccc(Cl)c3c(=O)nc12 (stereo not drawn) [Compound 18, 3-(4-(1′-(4-chloro-7-methyl-5-oxo-5,7-dihydrobenzo[4,5]imidazo[1,2-a]quinazolin-9-yl)-[1,4′-bipiperidin]-4-yl)phenyl)piperidine-2,6-dione]	> 8.00	95	> 8.00	98
Cn1c2cc(N3CCC(N4CCC(c5ccc(C6CCC(=O)NC6=O)cc5)CC4)CC3)ccc2n2c3cccc(N)c3c(=O)nc12 (stereo not drawn) [Compound 20, 3-(4-(1′-(4-amino-7-methyl-5-oxo-5,7-dihydrobenzo[4,5]imidazo[1,2-a]quinazolin-9-yl)-[1,4′-bipiperidin]-4-yl)phenyl)piperidine-2,6-dione]	< 7.00	81	7.00 to 8.00	80
CC(C)n1c2cc(N3CCC(N4CCC(c5ccc(C6CCC(=O)NC6=O)cc5)CC4)CC3)ccc2n2c3cccc(N)c3c(=O)nc12 (stereo not drawn) [Compound 21, 3-(4-(1′-(4-amino-7-isopropyl-5-oxo-5,7-dihydrobenzo[4,5]imidazo[1,2-a]quinazolin-9-yl)-[1,4′-bipiperidin]-4-yl)phenyl)piperidine-2,6-dione]	< 7.00	75	7.00 to 8.00	86
O=C1CCC(c2ccc(C3CCN(C4CCN(c5ccc6c(c5)n(C5CCCC5)c5nc(=O)c7c(Cl)cccc7n65)CC4)CC3)cc2)C(=O)N1 (stereo not drawn) [Compound 22, 3-(4-(1′-(4-chloro-7-cyclopentyl-5-oxo-5,7-dihydrobenzo[4,5]imidazo[1,2-a]quinazolin-9-yl)-[1,4′-bipiperidin]-4-yl)phenyl)piperidine-2,6-dione-HCl salt]	> 8.00	56	> 8.00	89
O=C1CCC(Nc2ccc(C3CCN(C4CCN(c5ccc6c(c5)n(C5CCCC5)c5nc(=O)c7c(Cl)cccc7n65)CC4)CC3)c(F)c2)C(=O)N1 (stereo not drawn) [Compound 23, 3-((4-(1′-(4-chloro-7-cyclopentyl-5-oxo-5,7-dihydrobenzo[4,5]imidazo[1,2-a]quinazolin-9-yl)-[1,4′-bipiperidin]-4-yl)-3-fluorophenyl)amino)piperidine-2,6-dione-HCl salt]	> 8.00	98	> 8.00	99
Nc1cccc2c1c(=O)nc1n(C3CCCC3)c3cc(N4CCC(N5CCC(c6ccc(C7CCC(=O)NC7=O)cc6)CC5)CC4)ccc3n21 (stereo not drawn) [Compound 25, 3-(4-(1′-(4-amino-7-cyclopentyl-5-oxo-5,7-dihydrobenzo[4,5]imidazo[1,2-a]quinazolin-9-yl)-[1,4′-bipiperidin]-4-yl)phenyl)piperidine-2,6-dione-HCl salt]	7.00 to 8.00	33	> 8.00	67
Nc1cccc2c1c(=O)nc1n(C3CCCC3)c3cc(N4CCC(N5CCN(c6ccc(C7CCC(=O)NC7=O)cc6)CC5)CC4)ccc3n21 (stereo not drawn) [Compound 26, 3-(4-(4-(1-(4-amino-7-cyclopentyl-5-oxo-5,7-dihydrobenzo[4,5]imidazo[1,2-a]quinazolin-9-yl)piperidin-4-yl)piperazin-1-yl)phenyl)piperidine-2,6-dione-HCl salt]	< 7.00	33	7.00 to 8.00	68
CC(C)n1c2cc(N3CCC(N4CCC(c5ccc(NC6CCC(=O)NC6=O)cc5F)CC4)CC3)ccc2n2c3cccc(Cl)c3c(=O)nc12 (stereo not drawn) [Compound 29, 3-((4-(1′-(4-chloro-7-isopropyl-5-oxo-5,7-dihydrobenzo[4,5]imidazo[1,2-a]quinazolin-9-yl)-[1,4′-bipiperidin]-4-yl)-3-fluorophenyl)amino)piperidine-2,6-dione-HCl salt]	> 8.00	97	> 8.00	96
O=C1CCC(N2Cc3cc(N4CCN(C5CCN(c6ccc7c(c6)n(C6CCCC6)c6nc(=O)c8c(Cl)cccc8n76)CC5)CC4)ccc3C2=O)C(=O)N1 (stereo not drawn) [Compound 30, 3-(5-(4-(1-(4-chloro-7-cyclopentyl-5-oxo-5,7-dihydrobenzo[4,5]imidazo[1,2-a]quinazolin-9-yl)piperidin-4-yl)piperazin-1-yl)-1-oxoisoindolin-2-yl)piperidine-2,6-dione-HCl salt]	< 7.00	64	> 8.00	90
Cn1c2cc(N3CCC(N4CCN(c5ccc(C6CCC(=O)NC6=O)cc5)CC4)CC3)ccc2n2c3cccc(N)c3c(=O)nc12 (stereo not drawn) [Compound 32, 3-(4-(4-(1-(4-amino-7-methyl-5-oxo-5,7-dihydrobenzo[4,5]imidazo[1,2-a]quinazolin-9-yl)piperidin-4-yl)piperazin-1-yl)phenyl)piperidine-2,6-dione-HCl salt]	< 7.00	38	< 7.00	59
O=C1CCC(Nc2ccc(N3CCN(C4CCN(c5ccc6c(c5)n(C5CCCC5)c5nc(=O)c7c(Cl)cccc7n65)CC4)CC3)c(F)c2)C(=O)N1 (stereo not drawn) [Compound 35, 3-((4-(4-(1-(4-chloro-7-cyclopentyl-5-oxo-5,7-dihydrobenzo[4,5]imidazo[1,2-a]quinazolin-9-yl)piperidin-4-yl)piperazin-1-y1)-3-fluorophenyl)amino)piperidine-2,6-dione-TFA salt]	< 7.00	91	> 8.00	98
